Measured values from patent US20060122214A1, “Agent for prophylaxis and treatment of angiostenosis” (priority 1999, published 2006).

Key:
[1] = test system: vascular smooth muscle cells (VSMC) derived from WKY rat aortic tunica media; test: Proliferation ability of VSMC ([3H] thymidine uptake method); type: cell-based; conditions: for [3H] thymidine uptake: 24 hours of culture, n = 5
Protocol: (1) Effect on Proliferation Ability of Vascular Smooth Muscle Cells (VSMC) Derived from WKY Rat Aortic Tunica Media (Method) VSMC were separated and cultured according to the method of Yamamoto et al. (Yamamoto H, et al., Br. J. Exp. Pathol. 64; 156-165, 1983). The proliferation ability of VSMC was determined according to the method of Berk et al. [[^3H] thymidine uptake method; Berk B C, et al., J. Cell Physiol. 137; 391-401, 1988]. A DMEM medium containing 10% serum was changed every two days and the cells were cultured on a dish. The cells after 5 to 10 passages were subjected to the experiment. VSMC were cultured in a medium containing 1.0% serum for 24 hours and in a serum free medium for 24 hours to synchronize the cell cycle. The VSMC were transferred to a medium containing 10% fetal calf serum or a serum free medium and [^3H] thymidine (2 μCi/ml) was added to each medium to label VSMC. The test drug (Y-27632) (10 μM or 30 μM) waw simultaneously added, and after 24 hours of culture, VSMC were recovered, admixed with a scintillator (ACSII, Amersham) and subjected to the measurement of radioactivity by a liquid scintillation counter (LS6500, Beckman), based on which the [^3H] thymidine uptake was measured.

[2] = test system: vascular smooth muscle cells (VSMC) derived from WKY rat aortic tunica media; test: Migration ability of cultured VSMC (96 well chemotaxis chamber, A595); type: cell-based; conditions: for A595 (VSMC migrated to the lower surface of the membrane): Y-27632 10 μM, cultured for 18 hours
Protocol: (2) Effect on Migration Ability of Cultured VSMC (Method) A serum free medium or a medium containing 10% serum, which contained the test drug (Y-27632, 10 μM), was placed in a 96 well chemotaxis lower chamber, and a serum free medium containing the test drug was placed in 96 well chemotaxis upper and lower chambers where VSMC were suspended, and then cultured for 18 hours. The VSMC migrated to the lower surface of the membrane were stained with QuickDiff (International Reagents Corporation) and absorbance was measured at A595.

[3] = test system: left carotid artery intima of WKY rats; test: Proliferation of regenerated intima after balloon injury of carotid artery in rat; type: in vivo; conditions: 30 mg/kg intraperitoneal, consecutively from 3 days before operation, 14 days after the operation, control 1.88±0.24, sham 0.03±0.01
Protocol: Effect on Proliferation of Regenerated Intima after Balloon Injury of Carotid Artery in Rat 2F Fogarty catheter was inserted from the outer left carotid artery of 8-week-old male WKY rats under anesthesia and inflated in the left common carotid artery, whereby intima was detached in the entire length. Physiological saline was consecutively administered to a control group, and the test drug (Y-27632) (30 mg/kg) was consecutively administered to a test group, wherein both groups underwent intraperitoneal administration starting from 3 days before operation. The rats free of the intima detachment treatment were used as a sham group. At 14 days after the operation, left carotid artery was subjected to perfusion fixation and removed thereafter, stained with HE, and a new intima thickness/medial thickness (I/M) ratio was measured.

C[C@@H](N)[C@H]1CC[C@H](C(=O)Nc2ccncc2)CC1 [Compound Y-27632, (+)-trans-4-(1-aminoethyl)-1-(4-pyridylcarbamoyl)cyclohexane 2HCl.1H2O]
[3H] thymidine uptake ([1]; +10% FCS, Y-27632 10 μM): 360153 ± 10425 dpm/dish
[3H] thymidine uptake ([1]; +10% FCS, Y-27632 30 μM): 366089 ± 12882 dpm/dish
[3H] thymidine uptake ([1]; FCS-free medium, Y-27632 10 μM): 150381 ± 6515 dpm/dish
[3H] thymidine uptake ([1]; FCS-free medium, Y-27632 30 μM): 127767 ± 2482 dpm/dish
effect on [3H] thymidine uptake (in words) ([1]; serum stimulation group and control group (serum free)): did not affect
A595 (VSMC migrated to the lower surface of the membrane) ([2]; +10% FCS): 0.036 ± 0.010 arbitrary unit/well
A595 (VSMC migrated to the lower surface of the membrane) ([2]; FCS-Free): 0.007 ± 0.003 arbitrary unit/well
effect on migration ability of VSMC (in words) ([2]; both medium containing 10% serum and serum free medium): suppressed the migration ability
new intima thickness/medial thickness (I/M) ratio [3]: 0.46±0.22
